From article PMC7158045 (BMC Plant Biology, 2020)
Counter-ions that a name gives are not always drawn. Like-named read-outs stand apart in the source and are kept apart here.

Assays:
Assay in all cases: biochemical
[1] = target: T1, ZmDRIK1-K217-P492 (Zea mays, UniProt C0P4K9)
T1 construct: kinase domain, K217-P492
T1 sequence (C0P4K9 1-514): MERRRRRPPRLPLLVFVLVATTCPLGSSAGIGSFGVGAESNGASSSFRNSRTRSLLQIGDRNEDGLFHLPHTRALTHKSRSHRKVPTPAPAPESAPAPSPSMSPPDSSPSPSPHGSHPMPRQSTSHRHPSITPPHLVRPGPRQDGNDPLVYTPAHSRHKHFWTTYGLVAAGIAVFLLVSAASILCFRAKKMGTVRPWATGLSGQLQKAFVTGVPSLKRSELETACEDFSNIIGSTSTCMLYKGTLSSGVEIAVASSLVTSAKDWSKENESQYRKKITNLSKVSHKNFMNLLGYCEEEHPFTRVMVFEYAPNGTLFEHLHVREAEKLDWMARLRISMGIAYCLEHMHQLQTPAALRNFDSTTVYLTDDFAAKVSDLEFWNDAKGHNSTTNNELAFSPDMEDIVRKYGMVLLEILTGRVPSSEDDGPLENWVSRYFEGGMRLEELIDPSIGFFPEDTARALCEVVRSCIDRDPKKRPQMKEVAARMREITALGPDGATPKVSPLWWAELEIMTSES

[2] = target: T2, ZmDRIK1-R187-P492 (Zea mays, UniProt C0P4K9)
T2 construct: kinase domain, R187-P492
T2 sequence (C0P4K9 1-514): T1 sequence (C0P4K9 1-514)

[3] = target: T3, ZmDRIK1-K217-S514 (Zea mays, UniProt C0P4K9)
T3 construct: kinase domain, K217-S514
T3 sequence (C0P4K9 1-514): T1 sequence (C0P4K9 1-514)

[4] = target: T4, ZmDRIK1 (DROUGHT RESPONSIVE INACTIVE KINASE 1), kinase domain (Zea mays, UniProt C0P4K9); conditions: DSF, Boltzmann fit, 0.1% DMSO; for ΔTm at 10 µM: read-out: dTm B, sheet ZmDRIK1-R187-S514;; for dTm B: sheet ZmDRIK1-R187-S514;, 10 µM, binder
T4 construct: gene ZEAMMB73_Zm00001d028770; ZmDRIK1-KD R187-S514 (kinase domain)
T4 sequence (C0P4K9 187-514): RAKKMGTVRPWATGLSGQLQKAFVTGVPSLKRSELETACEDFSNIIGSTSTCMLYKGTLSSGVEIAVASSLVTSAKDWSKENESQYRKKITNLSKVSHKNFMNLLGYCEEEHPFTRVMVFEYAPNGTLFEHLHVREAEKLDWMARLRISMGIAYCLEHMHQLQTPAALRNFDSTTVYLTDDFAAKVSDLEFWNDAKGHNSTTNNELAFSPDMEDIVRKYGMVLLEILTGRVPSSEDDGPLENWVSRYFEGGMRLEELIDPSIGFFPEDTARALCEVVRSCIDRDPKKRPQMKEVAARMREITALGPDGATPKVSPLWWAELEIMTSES

[5] = read-out: dTm B, sheet ZmDRIK1-K217-P492;, DSF, Boltzmann fit, 0.1% DMSO
[6] = read-out: dTm B, DSF, Boltzmann fit, 0.1% DMSO
[7] = read-out: dTm B, sheet ZmDRIK1-K217-S514;, DSF, Boltzmann fit, 0.1% DMSO

SMILES | ΔTm at 10 µM [1, 5] [°C] | ΔTm at 10 µM [2, 6] [°C] | ΔTm at 10 µM [3, 7] [°C] | ΔTm at 10 µM [4] [°C] | other results
Cc1[nH]c(/C=C2\C(=O)Nc3ccc(S(=O)(=O)N(C)c4cccc(Cl)c4)cc32)c(C)c1C(=O)N1CCN(C)CC1 [SU11274] | -0.463 | -0.288 | -0.605 | -1.31 | –
CC(C)(C)c1nc(-c2cccc(NS(=O)(=O)c3c(F)cccc3F)c2F)c(-c2ccnc(N)n2)s1 [Dabrafenib (GSK2118436)] | -1.14 | -0.533 | -0.366 | – | –
COc1cc(Nc2ncc(F)c(Nc3ccc4c(n3)NC(=O)C(C)(C)O4)n2)cc(OC)c1OC [R406] | – | – | – | – | dTm B [4]: -1.004 degC
C[C@@H](Oc1cc(-c2cnn(C3CCNCC3)c2)cnc1N)c1c(Cl)ccc(F)c1Cl [Crizotinib (PF-02341066)] | – | -0.336 | -0.67 | -0.958 | –
Cc1ccc(Nc2nccc(N(C)c3ccc4c(C)n(C)nc4c3)n2)cc1S(N)(=O)=O [Pazopanib] | – | – | – | – | dTm B [4]: -0.7756 degC
Cc1ccc(Nc2nccc(N(C)c3ccc4c(C)n(C)nc4c3)n2)cc1S(N)(=O)=O [Pazopanib HCl (GW786034 HCl)] | – | – | – | – | dTm B [4]: -0.83 degC
CNC(=O)Nc1ccc(-c2nc(N3CC4CCC(C3)O4)c3cnn(C4CCC5(CC4)OCCO5)c3n2)cc1 [WYE-125132 (WYE-132)] | -0.91 | – | -0.412 | -0.649 | –
Cc1ccc(NC(=O)c2cccc(C(C)(C)C#N)c2)cc1Nc1ccc2ncn(C)c(=O)c2c1 [AZ 628] | -0.776 | -0.122 | -0.322 | – | –
Cn1c(Nc2ccc(C(F)(F)F)cc2)nc2cc(Oc3ccnc(-c4ncc(C(F)(F)F)[nH]4)c3)ccc21 [RAF265 (CHIR-265)] | 0.39 | -2.04 | 10.1 | – | –
CN(c1ncccc1CNc1nc(Nc2ccc3c(c2)CC(=O)N3)ncc1C(F)(F)F)S(C)(=O)=O [PF-562271] | – | – | – | – | dTm B [4]: -0.5293 degC
CN1CCN(c2ccc3nc(-c4c(N)c5c(F)cccc5[nH]c4=O)[nH]c3c2)CC1 [Dovitinib (TKI-258) Dilactic Acid] | – | – | – | – | dTm B [4]: -0.2117 degC
N#CC[C@H](C1CCCC1)n1cc(-c2ncnc3[nH]ccc23)cn1 [Ruxolitinib (INCB018424)] | – | – | – | – | dTm B [4]: -0.7708 degC
COc1c(C)c(C(=O)c2ccc(N)c(C(=O)O)c2)n2ccccc12 [SSR128129E] | -0.939 | – | -0.406 | -0.884 | –
NS(=O)(=O)c1ccc(N/C=C2\C(=O)Nc3ccc4ncsc4c32)cc1 [GW297361X] | – | – | – | -0.74 | –
NC(=O)Nc1sc(-c2ccc(F)cc2)cc1C(N)=O [TPCA-1] | – | 0.149 | 0.285 | -0.582 | –
CNC(=O)c1cc(Oc2ccc(NC(=O)Nc3ccc(Cl)c(C(F)(F)F)c3)cc2)ccn1 [Sorafenib Tosylate] | – | – | – | -12 | –
CCc1cncnc1N1CCN(Cc2nc3ccc(C(F)(F)F)cc3[nH]2)CC1 [PF-4708671] | -0.666 | – | -0.219 | -0.759 | –
COc1ncccc1-c1cnn2ccc(N3CCN(C(=O)OC(C)C)CC3)nc12 [LP-935509 (AAK1)] | – | – | – | – | ΔTm at 10 µM ([1]; read-out: dTm B): -0.638 °C; ΔTm at 10 µM ([2]; read-out: dTm B): -0.447 °C; ΔTm at 10 µM ([3]; read-out: dTm B): -0.536 °C

SMILES | ΔTm at 10 µM [1, 5] [°C] | ΔTm at 10 µM [2, 6] [°C] | ΔTm at 10 µM [3, 7] [°C] | ΔTm at 10 µM [4] [°C] | other results
CN1CCN(c2ccc3nc(-c4c(N)c5c(F)cccc5[nH]c4=O)[nH]c3c2)CC1 [Dovitinib (TKI-258)] | – | – | – | – | dTm B [4]: -0.003273 degC
COc1cc2nccc(Oc3ccc(NC(=O)C4(C(=O)Nc5ccc(F)cc5)CC4)cc3)c2cc1OC [Cabozantinib malate (XL184)] | – | – | – | -14.9 | –
CN(c1ncccc1CNc1nc(Nc2ccc3c(c2)CC(=O)N3)ncc1C(F)(F)F)S(C)(=O)=O [PF-00562271] | – | – | – | – | dTm B [4]: -0.8176 degC
COc1cc2c(Oc3ccc(NC(=O)C4(C(=O)Nc5ccc(F)cc5)CC4)cc3F)ccnc2cc1OCCCN1CCOCC1 [Foretinib (GSK1363089)] | -14.9 | 5.58 | -14.7 | – | –
CS(=O)(=O)CCNCc1ccc(-c2ccc3ncnc(Nc4ccc(OCc5cccc(F)c5)c(Cl)c4)c3c2)o1 [Lapatinib (GW-572016) Ditosylate] | -0.876 | 1.26 | -16 | – | –
N#CC[C@H](C1CCCC1)n1cc(-c2ncnc3[nH]ccc23)cn1 [S-Ruxolitinib (INCB018424)] | – | – | – | – | dTm B [4]: -0.5823 degC
O=C(NOCC1CC1)c1ccc(F)c(F)c1Nc1ccc(I)cc1Cl [PD184352 (CI-1040)] | -1.2 | -0.348 | 0.792 | – | –
COc1cc(N2CCC(N3CCN(C)CC3)CC2)ccc1Nc1ncc(Cl)c(Nc2ccccc2P(C)(C)=O)n1 [AP26113] | -0.987 | -0.259 | -0.362 | – | –
Nc1ccc(-c2ccc3ncc4ccc(=O)n(-c5cccc(C(F)(F)F)c5)c4c3c2)cn1 [Torin 2] | -0.531 | -0.3 | -0.322 | – | –
COc1cc2nccc(Oc3ccc(NC(=O)Nc4ccc(F)cc4F)c(F)c3)c2cc1OC [Ki8751] | -0.321 | -0.397 | -0.589 | – | –
COc1ccc(-c2ccc3ncc4c(c3c2)n(-c2ccc(N3CCNCC3)c(C(F)(F)F)c2)c(=O)n4C)cn1 [BGT226 (NVP-BGT226)] | -0.378 | -0.244 | 0.245 | – | –
COc1cc(Nc2ncc(F)c(Nc3ccc4c(n3)NC(=O)C(C)(C)O4)n2)cc(OC)c1OC [R406 (free base)] | – | – | – | – | dTm B [4]: -0.8381 degC
O=c1c(-c2ccc(O)cc2)coc2cc(O)cc(O)c12 [Genistein] | -18.8 | -17.5 | -13.4 | – | –
CN(C[C@@H]1COCCO1)S(=O)(=O)Nc1ccc2ccc3ncc(-c4cnn(C)c4)cc3c(=O)c2c1 [MK-2461] | -1.12 | – | -0.402 | -1 | –
S=C(NCc1ccc2c(c1)OCO2)N1CCN(c2ncnc3c2oc2ccccc23)CC1 [Amuvatinib (MP-470)] | 9.06 | -10.8 | -3.2 | – | –
Cc1ccccc1-n1c(Cn2ncc3c(N)ncnc32)nc2cccc(C)c2c1=O [PIK-293] | -1.04 | -0.695 | – | -1.14 | –
CCc1cc(Nc2nccc(-c3c(-c4ccc(OC)c(C(=O)Nc5c(F)cccc5F)c4)nc4ccccn34)n2)c(OC)cc1N1CCC(N2CCN(S(C)(=O)=O)CC2)CC1 [GSK1904529A] | -0.895 | – | -0.386 | 0.265 | –
